In paper PMC4841536, “Characterization of the Anti-HCV Activities of the New Cyclophilin Inhibitor STG-175” (PLoS ONE, 2016):

Experiments:
Type in all cases: cell-based
[1] = test system: HIV-1 (JR-CSF) in activated PBMCs; assay: Mono-infection, HIV-1 capsid/p24 ELISA; conditions: added together with virus, 12 days
From the text: For mono-infections: a) human hepatoma Huh7.5.1 cells were infected with HCV (JFH-1) and viral replication was quantified by HCV core ELISA (Ortho HCV antigen ELISA kit; Ortho Clinical Diagnostics, Waco Chemicals, Inc. or HCV Core ELISA, XpressBio); b) sodium-taurocholate co-transporting polypeptide (NTCP)-positive Huh7 cells were infected with hepatitis B virus (HBV) AD38 (produced from HepAD38 cells) and viral replication was quantified by HBV HBeAg ELISA; and c) human (peripheral blood monocytic cells (PBMCs) were infected with HIV-1 (JR-CSF) and viral replication was quantified by HIV-1 capsid/p24 ELISA. PBMCs were isolated as described previously. The Scripps Research Institute Normal Blood Donor Service (TSRI NBDS) provides TSRI investigators who have Human Subjects Committee-approved protocols with a source of normal blood for their research. Donors are assured of a controlled clinical setting for their blood to be drawn by licensed phlebotomists, and investigators are assured that the donors whose specimens they obtain through the service have been screened upon entry into the program and annually thereafter for a CBC, Hepatitis B and C and HIV-1. Hemoglobin determinations at every donation protect the donor from phlebotomy-induced anemia. […]

[2] = test system: IL-2 promoter activation in Jurkat T-cell line; assay: In vitro assay for immunosuppression: IL-2 promoter activation in engineered Jurkat T-cell line (betagalactosidase)
Method: IL-2 promoter activation upon T-cell stimulation was determined using an engineered Jurkat T-cell line, which expresses betagalactosidase when exposed to chemical non-specific factors like […] (PMA) and phytohematogglutinin (PHA) as described previously. DMSO or STG-175 were added together with PMA (10 ng/mL) to 1 million of Jurkat cells (triplicates). Betagalactosidase activity in cell lysates was quantified by fluorescence (460 nm) after 24 h.
Fig 1 Anti-PPIase and immunosuppressive activities of STG-175. A. Structures of cyclophilin inhibitors. Inhibition of CypA (B) and CypD (C) isomerase activities were assessed using the α-chymotrypsin-coupled assay. Each test compound was prepared at 10 concentrations (0.05–1000 nM). All solutions were equilibrated, and reactions conducted at 5°C. Reactions were initiated by mixing 95 μL reaction mix with 5 μL of the peptide to be cleaved and measuring OD405 nm at 6-sec intervals for 6 min. Data were fitted with Graphpad Prism 6.0 to obtain first-order rate constants. Enzyme catalyzed rate constants were calculated by subtracting the rate constant from uncatalyzed reactions (no CypA/D), and catalytic rate constants plotted as a function of inhibitor concentration to obtain IC50s. […] D. IL-2 promoter activation upon T-cell stimulation was determined using an engineered Jurkat T-cell line, which expresses betagalactosidase. Jurkat cells (1 million) were activated with PMA (10 ng/mL). […] The Y-axis values are expressed as percentage of activity. Data expressed as EC50s are representative of two independent experiments.
The formation of this trimolecular complex inhibits T cell proliferation by blocking the signaling pathway leading to IL-2 production upon T-cell stimulation. The immunosuppressive activity of STG-175 was evaluated by inhibition of the IL-2 production in Jurkat cells.

[3] = test system: NS5Bi-resistant S282T NS5B Con1 GT1b replicon; assay: Electroporated Con1 RNA replication in Huh7.5.1 cells (RT-qPCR), S282T NS5B; conditions: Hepatitis C virus, Huh-7.5.1, 192 h, read-out: EC50 S282T NS5B
From the text: The GT1b subgenomic firefly luciferase reporter replicon pFK-I389/NS3–3 was provided by R. Bartenschlager. The GT1B subgenomic NS3, NS5A and NS5B mutants were created via homologous recombination using the In-Fusion HD Cloning kit (Clontech) as we described previously. […] The in vitro transcription of wild-type and mutant Con1 RNA was accomplished using the T7 MEGAscript kit (Ambion) by following the manufacturer’s instructions. In vitro-transcribed RNAs were introduced into Huh7.5.1 cells by electroporation. Trypsinized cells were washed twice and resuspended in phosphate-buffered saline (PBS) (calcium-free and magnesium-free) at 1x 10^7 cells per ml. Ten micrograms of RNA for each mutant was mixed with 0.4 mL of cells in a 4-mm cuvette, and a Bio-Rad Gene Pulser system was used to deliver a single pulse at 0.27 kV, 100 ohms, and 960 μF. […] RNA transfection efficiency and HCV subgenomic replication were assessed by reverse transcription-quantitative PCR (RT-qPCR) and presented as genome equivalents (GE) per microgram of total RNA as described previously. We measured by RT-qPCR the replication of wild-type, STG-175-, NS5Ai-, NS3i- and NS5Bi-resistant mutants in the presence of increasing concentrations of SGT-175, daclatasvir, telaprevir, boceprevir and sofosbuvir over a period of 8 days.
Fig 5 Cross-resistance analyses. […] Data are expressed as log of GE/μg of total RNA. […]

CC=CCC(C)C(O)C1C(=O)NC(CC)C(=O)N(C)C(CSCCCCO)C(=O)N(C)C(CC(C)(C)O)C(=O)NC(C(C)C)C(=O)N(C)C(CC(C)C)C(=O)NC(C)C(=O)NC(C)C(=O)N(C)C(CC(C)C)C(=O)N(C)C(CC(C)C)C(=O)N(C)C(C(C)C)C(=O)N1C (centres unmarked) [STG-175]
HIV-1 infection (HIV-1 capsid ELISA) ([1]; 0.5 μM): significantly decreased infection | HIV-1 infection (HIV-1 capsid ELISA) ([1]; 5 μM): fully blocked | IC50 ([2]; Homo sapiens, Jurkat, 24 h, read-out: IC50, inhibition of IL-2 production (immunosuppressive activity)): 0.159 µM | times less immunosuppressive activity than CsA ([2]; Jurkat IL-2): approximately 1000 times | EC50 [3]: 0.00541 µM
